Source: ChEMBL document CHEMBL3232945 (Eur J Med Chem, 2014)

How the values were obtained:
Rattus norvegicus [1] = assay: Toxicity in […] normotensive Wistar rat assessed as mean arterial pressure at 40 mg/kg, ip after 60 mins (reference value: 95.07 +/- 1.973 mmHg); assay type: organism-based, Artery; parameters: dose 40 mg/kg, route intraperitoneal; conditions: in vivo, 1 h
Rattus norvegicus [2] = assay: Antihypertensive activity in Wistar rat assessed as mean arterial pressure at 40 mg/kg, ip measured immediately at 0 min (reference value: 194.08 +/- 1.962 mmHg); assay type: functional, Artery; conditions: route intraperitoneal
Rattus norvegicus [3] = assay: Antihypertensive activity in Wistar rat assessed as mean arterial pressure at 40 mg/kg, ip after 15 mins (reference value: 195.68 +/- 1.623 mmHg); assay type: functional, Artery; conditions: route intraperitoneal
Rattus norvegicus [4] = assay: Antihypertensive activity in Wistar rat assessed as mean arterial pressure at 40 mg/kg, ip after 30 mins (reference value: 194.72 +/- 1.002 mmHg); assay type: functional, Artery; conditions: route intraperitoneal
Rattus norvegicus [5] = assay: Antihypertensive activity in Wistar rat assessed as mean arterial pressure at 40 mg/kg, ip after 45 mins (reference value: 193.96 +/- 0.865 mmHg); assay type: functional, Artery; conditions: route intraperitoneal
Rattus norvegicus [6] = assay: Antihypertensive activity in Wistar rat assessed as mean arterial pressure at 40 mg/kg, ip after 60 mins (reference value: 195.11 +/- 0.531 mmHg); assay type: functional, Artery; conditions: route intraperitoneal
Rattus norvegicus [7] = assay: Toxicity in anesthetized-normotensive Wistar rat assessed as heart rate at 40 mg/kg, ip measured immediately at 0 min (reference value: 316.62 +/- 9.643 bpm); assay type: organism-based; parameters: dose 40 mg/kg, route intraperitoneal; conditions: in vivo, 0 h
Rattus norvegicus [8] = assay: Toxicity in anesthetized-normotensive Wistar rat assessed as heart rate at 40 mg/kg, ip after 15 mins (reference value: 313.93 +/- 9.912 bpm); assay type: organism-based; parameters: dose 40 mg/kg, route intraperitoneal; conditions: in vivo, 0.25 h
Rattus norvegicus [9] = assay: Toxicity in anesthetized-normotensive Wistar rat assessed as heart rate at 40 mg/kg, ip after 30 mins (reference value: 317.68 +/- 7.631 bpm); assay type: organism-based; parameters: dose 40 mg/kg, route intraperitoneal; conditions: in vivo, 0.5 h
Rattus norvegicus [10] = assay: Toxicity in anesthetized-normotensive Wistar rat assessed as heart rate at 40 mg/kg, ip after 45 mins (reference value: 316.82 +/- 8.452 bpm); assay type: organism-based; parameters: dose 40 mg/kg, route intraperitoneal; conditions: in vivo, 0.75 h
Rattus norvegicus [11] = assay: Toxicity in anesthetized-normotensive Wistar rat assessed as heart rate at 40 mg/kg, ip after 60 mins (reference value: 314.96 +/- 9.442 bpm); assay type: organism-based; parameters: dose 40 mg/kg, route intraperitoneal; conditions: in vivo, 1 h
Rattus norvegicus [12] = assay: Antiarrhythmic activity in barium chloride-induced Wistar rat assessed as increase in appearance time of arrhythmia at 40 mg/kg, ip administered 60 mins before barium chloride challenge (reference value: 129.4 +/- 4.373 sec); assay type: functional, Heart; conditions: route intraperitoneal
Rattus norvegicus [13] = assay: Antiarrhythmic activity in barium chloride-induced Wistar rat assessed as increase in mortality time at 40 mg/kg, ip administered 60 mins before barium chloride challenge (reference value: 682.8 +/- 9.656 secs); assay type: functional, Heart; conditions: route intraperitoneal
Rattus norvegicus [14] = assay: Toxicity in anaesthetized-Wistar rat assessed as P-Q ECG interval at 40 mg/kg, ip measured immediately at 0 min (reference value: 52.4 +/- 0.927 ms); assay type: organism-based; parameters: dose 40 mg/kg, route intraperitoneal; conditions: in vivo, 0 h
Rattus norvegicus [15] = assay: Toxicity in anaesthetized-Wistar rat assessed as QRS ECG interval at 40 mg/kg, ip measured immediately at 0 min (reference value: 19.6 +/- 1.142 ms); assay type: organism-based; parameters: dose 40 mg/kg, route intraperitoneal; conditions: in vivo, 0 h
Rattus norvegicus [16] = assay: Toxicity in anaesthetized-Wistar rat assessed as Q-T ECG interval at 40 mg/kg, ip measured immediately at 0 min (reference value: 78.8 +/- 1.030 ms); assay type: organism-based; parameters: dose 40 mg/kg, route intraperitoneal; conditions: in vivo, 0 h
Rattus norvegicus [17] = assay: Toxicity in anaesthetized-Wistar rat assessed as P-Q ECG interval at 40 mg/kg, ip after 15 mins (reference value: 52.2 +/- 1.158 ms); assay type: organism-based; parameters: dose 40 mg/kg, route intraperitoneal; conditions: in vivo, 0.25 h
Rattus norvegicus [18] = assay: Toxicity in anaesthetized-Wistar rat assessed as QRS ECG interval at 40 mg/kg, ip after 15 mins (reference value: 18.9 +/- 1.563 ms); assay type: organism-based; parameters: dose 40 mg/kg, route intraperitoneal; conditions: in vivo, 0.25 h
Rattus norvegicus [19] = assay: Toxicity in anaesthetized-Wistar rat assessed as Q-T ECG interval at 40 mg/kg, ip after 15 mins (reference value: 79.4 +/- 1.270 ms); assay type: organism-based; parameters: dose 40 mg/kg, route intraperitoneal; conditions: in vivo, 0.25 h
Rattus norvegicus [20] = assay: Toxicity in anaesthetized-Wistar rat assessed as P-Q ECG interval at 40 mg/kg, ip after 30 mins (reference value: […] +/- 0.927 ms); assay type: organism-based; parameters: dose 40 mg/kg, route intraperitoneal; conditions: in vivo, 0.5 h
Rattus norvegicus [21] = assay: Toxicity in anaesthetized-Wistar rat assessed as QRS ECG interval at 40 mg/kg, ip after 30 mins (reference value: 19.9 +/- 1.393 ms); assay type: organism-based; parameters: dose 40 mg/kg, route intraperitoneal; conditions: in vivo, 0.5 h
Rattus norvegicus [22] = assay: Toxicity in anaesthetized-Wistar rat assessed as Q-T ECG interval at 40 mg/kg, ip after 30 mins (reference value: 78.3 +/- 0.860 ms); assay type: organism-based; parameters: dose 40 mg/kg, route intraperitoneal; conditions: in vivo, 0.5 h
Rattus norvegicus [23] = assay: Toxicity in anaesthetized-Wistar rat assessed as P-Q ECG interval at 40 mg/kg, ip after 45 mins (reference value: 52.5 +/- 0.780 ms); assay type: organism-based; parameters: dose 40 mg/kg, route intraperitoneal; conditions: in vivo, 0.75 h
Rattus norvegicus [24] = assay: Toxicity in anaesthetized-Wistar rat assessed as QRS ECG interval at 40 mg/kg, ip after 45 mins (reference value: 20.2 +/- 1.348 ms); assay type: organism-based; parameters: dose 40 mg/kg, route intraperitoneal; conditions: in vivo, 0.75 h
Rattus norvegicus [25] = assay: Toxicity in anaesthetized-Wistar rat assessed as Q-T ECG interval at 40 mg/kg, ip after 45 mins (reference value: 78.8 +/- 0.927 ms); assay type: organism-based; parameters: dose 40 mg/kg, route intraperitoneal; conditions: in vivo, 0.75 h
Rattus norvegicus [26] = assay: Toxicity in anaesthetized-Wistar rat assessed as P-Q ECG interval at 40 mg/kg, ip after 60 mins (reference value: […] +/- 0.924 ms); assay type: organism-based; parameters: dose 40 mg/kg, route intraperitoneal; conditions: in vivo, 1 h
Rattus norvegicus [27] = assay: Toxicity in anaesthetized-Wistar rat assessed as QRS ECG interval at 40 mg/kg, ip after 60 mins (reference value: 19.3 +/- 0.873 ms); assay type: organism-based; parameters: dose 40 mg/kg, route intraperitoneal; conditions: in vivo, 1 h
Rattus norvegicus [28] = assay: Toxicity in anaesthetized-Wistar rat assessed as Q-T ECG interval at 40 mg/kg, ip after 60 mins (reference value: 79.7 +/- 0.965 ms); assay type: organism-based; parameters: dose 40 mg/kg, route intraperitoneal; conditions: in vivo, 1 h
Rattus norvegicus [29] = assay: Toxicity in […] normotensive Wistar rat assessed as mean arterial pressure at 40 mg/kg, ip measured immediately at 0 min (reference value: 94.21 +/- 2.065 mmHg); assay type: organism-based, Artery; parameters: dose 40 mg/kg, route intraperitoneal; conditions: in vivo, 0 h
Rattus norvegicus [30] = assay: Toxicity in […] normotensive Wistar rat assessed as mean arterial pressure at 40 mg/kg, ip after 15 mins (reference value: 93.81 +/- 1.543 mmHg); assay type: organism-based, Artery; parameters: dose 40 mg/kg, route intraperitoneal; conditions: in vivo, 0.25 h
Rattus norvegicus [31] = assay: Toxicity in […] normotensive Wistar rat assessed as mean arterial pressure at 40 mg/kg, ip after 30 mins (reference value: 94.68 +/- 1.213 mmHg); assay type: organism-based, Artery; parameters: dose 40 mg/kg, route intraperitoneal; conditions: in vivo, 0.5 h
Rattus norvegicus [32] = assay: Toxicity in […] normotensive Wistar rat assessed as mean arterial pressure at 40 mg/kg, ip after 45 mins (reference value: 94.83 +/- 0.943 mmHg); assay type: organism-based, Artery; parameters: dose 40 mg/kg, route intraperitoneal; conditions: in vivo, 0.75 h

Row | Structure (SMILES) | Activity (Rattus norvegicus [1]) [mmHg] | Activity (Rattus norvegicus [2]) [mmHg] | Activity (Rattus norvegicus [3]) [mmHg] | Activity (Rattus norvegicus [4]) [mmHg] | Activity (Rattus norvegicus [5]) [mmHg] | Activity (Rattus norvegicus [6]) [mmHg] | Activity (Rattus norvegicus [7]) [bpm] | Activity (Rattus norvegicus [8]) [bpm] | Activity (Rattus norvegicus [9]) [bpm] | Activity (Rattus norvegicus [10]) [bpm] | Activity (Rattus norvegicus [11]) [bpm] | Time (Rattus norvegicus [12]) [s] | Time (Rattus norvegicus [13]) [s] | Activity (Rattus norvegicus [14]) [ms] | Activity (Rattus norvegicus [15]) [min] | Activity (Rattus norvegicus [16]) [min] | Activity (Rattus norvegicus [17]) [min] | Activity (Rattus norvegicus [18]) [min] | Activity (Rattus norvegicus [19]) [min] | Activity (Rattus norvegicus [20]) [min] | also measured
1 | CCCN(CCC)CC(O)CN1C(=O)/C(=C\c2ccccc2)S/C1=N\c1ccccc1 (centres undefined) | 88.98 | 193.57 | 184.76 | 170.1 | 153.26 | 172.23 | 329.62 | 319.34 | 289.52 | 305.32 | 312.43 | 266.1 | 938.4 | 49.4 | 22.8 | 72.5 | 49.7 | 23.2 | 72.9 | 51.3 | Activity (Rattus norvegicus [21]): 23.8 ms; Activity (Rattus norvegicus [22]): 73.4 min; Activity (Rattus norvegicus [23]): 52.4 min; Activity (Rattus norvegicus [24]): 24.1 min; Activity (Rattus norvegicus [25]): 74.9 min; Activity (Rattus norvegicus [26]): 50.2 min; Activity (Rattus norvegicus [27]): 22.5 min; Activity (Rattus norvegicus [28]): 72.7 ms; Activity (Rattus norvegicus [29]): 95.41 mmHg; Activity (Rattus norvegicus [30]): 91.1 mmHg; Activity (Rattus norvegicus [31]): 79.16 mmHg; Activity (Rattus norvegicus [32]): 72.37 mmHg
2 | O=C1/C(=C\c2ccccc2)S/C(=N\c2ccccc2)N1CC(O)CN1CCN(c2ccccc2)CC1 (centres undefined) | 83.55 | 194.87 | 180.43 | 146.27 | 156.09 | 182.32 | 318.34 | 309.46 | 295.41 | 287.25 | 301.92 | 285.4 | 964.4 | 52.4 | 21.8 | 73.5 | 52.7 | 22.2 | 73.9 | 53.3 | Activity (Rattus norvegicus [21]): 23.5 ms; Activity (Rattus norvegicus [22]): 74.2 min; Activity (Rattus norvegicus [23]): 53.9 min; Activity (Rattus norvegicus [24]): 24.1 min; Activity (Rattus norvegicus [25]): 74.9 min; Activity (Rattus norvegicus [26]): 54.2 min; Activity (Rattus norvegicus [27]): 24.7 min; Activity (Rattus norvegicus [28]): 75 ms; Activity (Rattus norvegicus [29]): 94.56 mmHg; Activity (Rattus norvegicus [30]): 86.43 mmHg; Activity (Rattus norvegicus [31]): 76.84 mmHg; Activity (Rattus norvegicus [32]): 79.26 mmHg
